# Legend:
# [1] = Inhibition of Mycobacterium marinum recombinant arylamine N-acetyltransferase-mediated acetyl coA hydrolysis at 30 uM by DTNB-based spectrophotometric analysis
# [2] = Inhibition of Mycobacterium marinum recombinant arylamine N-acetyltransferase-mediated acetyl coA hydrolysis by DTNB-based spectrophotometric analysis
# [3] = Competitive inhibition of Mycobacterium marinum recombinant arylamine N-acetyltransferase-mediated acetyl coA hydrolysis by DTNB-based spectrophotometric analysis
# [4] = Inhibition of Pseudomonas aeruginosa arylamine N-acetyltransferase
# [5] = system: Mycobacterium tuberculosis; assay: Antimycobacterial activity against Mycobacterium tuberculosis after 28 days; format: functional; details: 672 h
SMILES,inhibition [1] [%],IC50 [2] [µM],Ki [3] [µM],IC50 [4] [µM],MIC [5] [µM]
COc1ccc(-c2cc(-c3cc(O)ccc3O)n[nH]2)cc1,21.5,> 30,,,
COc1ccc(OC)c(-c2cc(-c3ccccc3)[nH]n2)c1,50.7,11.7,,,
COc1ccc(O)c(-c2cc(-c3ccccc3)[nH]n2)c1,53.9,12.9,,,
COc1cccc(-c2cc(-c3ccc(F)cc3)[nH]n2)c1,61.2,17.6,,,
COc1ccc(-c2cc(-c3cc(OC)ccc3OC)n[nH]2)cc1,29.2,> 30,,,
COc1ccc(-c2cc(-c3cc(F)ccc3O)n[nH]2)cc1,46.5,> 30,,,
COc1ccc(O)c(-c2cc(-c3ccc(F)cc3)[nH]n2)c1,59.2,21.3,,,
COc1ccc(-c2cc(-c3cc(OC)ccc3O)[nH]n2)cc1,65.8,18.5,23.2,9.7,34
COc1ccc(-c2cc(-c3cccc(OC)c3)n[nH]2)cc1,26.5,> 30,,,
Oc1ccc(F)cc1-c1cc(-c2ccc(F)cc2)[nH]n1,32.7,> 30,,,
COc1ccc(-c2cc(-c3cc(O)cc(O)c3)n[nH]2)cc1,15.6,> 30,,,
COc1ccc(-c2cc(-c3ccccc3)n[nH]2)cc1,26.5,> 30,,,
c1ccc(-c2cc(-c3ccccc3)[nH]n2)cc1,45.2,> 30,,,
COc1ccc(-c2cc(-c3cc(F)ccc3F)n[nH]2)cc1,18.9,> 30,,,
Fc1ccc(F)c(-c2cc(-c3ccccc3)[nH]n2)c1,53.5,18.8,,,
Fc1ccc(-c2cc(-c3cc(F)ccc3F)n[nH]2)cc1,29.7,> 30,,,
